The values that follow come from patent US5374733A, “Sweetening agent derived from L-aspartic or L-glutamic acid” (priority 1989, dated 1994).

A short description of series [1]: Stability: accelerated ageing in aqueous solution at pH 3 and 70° C., remaining product by HPLC (half-life). Type of series: physicochemical. To be noted: pH 3, 70° C. The protocol:
The stability of the compounds of the invention, in particular those containing the L-glutamyl residue, is very high and can in certain cases be about three hundred times greater than that of the compounds of the prior art.
The stability of the compounds of the prior art and those of the invention is measured using high performance liquid chromatography to determine the amount of product remaining after accelerated ageing in an acid medium (phosphate buffer at pH 3) and at high temperature (70° C.). Under these experimental conditions, measurement of the half-life (time corresponding to 50% degradation) makes it possible to evaluate the potential stability of the compounds tested in this way. A compound of low stability will have a very short half-life of only a few hours, whereas a very stable compound will have a half-life of several tens of days, as is the case, for example, of compounds (5) and (6) of the invention, which have a half-life of about 60 days (FIG. 1).

Series [2] in a line: Sweetening potency: taste comparison by a team of eight experienced people with a sucrose reference solution. The conditions noted are these: weight basis. The protocol:
The sweetening potency of the compounds described in the Examples was evaluated by a team of eight experienced people. This is done by comparing the taste of the compounds, in aqueous solution at variable concentrations, with a 2%, 5 % or 10 % reference solution of sucrose. The sweetening potency of the test compound compared with sucrose then corresponds to the weight ratio between the compound and sucrose for equal sweetening intensity, i.e. when the sweet tastes of the solution of the test compound and the reference solution of sucrose are considered, by a majority of people, to have the same sweetening intensity.
Summary Table 3 below gives, by way of examples, a list of a few compounds obtained by experimental protocols similar to those described above, which those skilled in the art will easily find, together with their relative sweetening potency (SP), evaluated on a weight basis, compared with a 2% aqueous solution of sucrose. When the groups R1, R2 and R3 are different, the configuration of the asymmetric carbon to which they are bonded (carbon marked with an asterisk) is designated according to the conventional rules of stereochemistry using the R/S system: R, S or, when both configurations coexist in the same compound, RS.

For series [3] the following is noted: cited from earlier work.
Setting [4] is: phosphate buffer, pH 3, accelerated ageing, read-out: half-life (converted).
Setting [5] is: Table 2, EP-A-0.338.946, sucrose concentration not stated.
[6] abbreviates: prior art and aspartame, sucrose concentration not given.
Where [7] appears, read: phosphate buffer, pH 3, accelerated ageing, prior art compounds, read-out: half-life (converted).

Each structure is given as a SMILES string. Read-outs that look alike come from different tables or passages of the source. Peptide text beside a SMILES is read from it.

In general, half-life refers to how long it takes for the measured level to halve. Turning to `CCCC[C@H](C)C(=O)N[C@@H](CCC(=O)O)C(=O)Nc1ccc(C#N)cc1` [Example 4, N-[(S)-2-methylhexanoyl]-alpha-L-glutamyl-4-aminophenylcarbonitrile], the “stability (in words)” value in series [1] (accelerated ageing) is given as “excellent”. Besides, in series [1] (setting [4]), the half-life is greater than 1440 h. Also, the “SP (relative sweetening potency)” value in series [2] (Table 3, compared with a 2% aqueous solution of sucrose) was found to be 9000. The sweetening potency in series [2] (by comparison with a 2% solution of sucrose) is ~9000 times that of sucrose. With `N#Cc1ccc(NC(=O)[C@H](CC(=O)O)NCc2ccccc2)cc1` [compound (4)], in series [1] (setting [4]), the half-life was roughly 48 h. The SP in series [3] (setting [5]) was 1000. In series [3] (setting [6]), the sweetening potency is 1000 times that of sucrose. As for `N#Cc1ccc(NC(=O)[C@H](CC(=O)O)NC(=O)c2ccccc2)cc1` [compound (3)], the half-life in series [1] (setting [7]) was roughly 8 h. Besides, the “sweetening potency (SP)” value in series [3] (JP-A-87-252754, text, by comparison with a 5% solution of sucrose) is 720 times that of sucrose. The SP in series [3] (Table 1, JP-A-87-252754, by comparison with a 5% solution of sucrose) is given as 720 times that of sucrose. Moreover, the sweetening potency in series [3] (setting [6]) is 720 times that of sucrose. Take `CCCCC(C)(C)C(=O)N[C@@H](CCC(=O)O)C(=O)Nc1ccc(C#N)nc1` [Example 2, N-(2,2-dimethylhexanoyl)-alpha-L-glutamyl-5-aminopyridine-2-carbonitrile]: in series [1] (accelerated ageing), the “stability (in words)” value was “excellent”. Also, the half-life in series [1] (setting [4]) was roughly 1680 h. `CCCC[C@H](C)C(=O)N[C@@H](CCC(=O)O)C(=O)Nc1ccc(C#N)nc1` [Example 1, N-[(S)-2-methylhexanoyl]-alpha-L-glutamyl-5-aminopyridine-2-carbonitrile]: in series [1] (accelerated ageing), the half-life result is given as “about 60 days” and the “stability (in words)” value was “excellent”. Turning to `N#Cc1ccc(NC(=O)[C@H](CC(=O)O)NC(=O)C(F)(F)F)cc1` [compound (1)], in series [1] (setting [7]), the half-life is roughly 15 h. Besides, the sweetening potency in series [3] (setting [6]) is 3000 times that of sucrose; in series [3] (prior art, by comparison with a 2% solution of sucrose), 3000 times that of sucrose. For `C[C@@H](Oc1ccccc1)C(=O)N[C@@H](CCC(=O)O)C(=O)Nc1ccc(C#N)nc1` [Example 3, N-[(R)-2-phenoxypropanoyl]-alpha-L-glutamyl-5-aminopyridine-2-carbonitrile], the “stability (in words)” value in series [1] (accelerated ageing) was “very high”. In series [1] (setting [4]), the half-life is roughly 1440 h.

Regarding `CCCCCN[C@@H](CCC(=O)O)C(=O)Nc1ccc(C#N)cc1` [CH3 (CH2)3 CH2/2/4-CN--C6 H4], the SP in series [3] (setting [5]) is given as 1500. With `CCCCCCCCN[C@@H](CC(=O)O)C(=O)Nc1ccc(C#N)cc1` [CH3 (CH2)6 CH2/1/4-CN--C6 H4], in series [3] (setting [5]), the SP is 400. As to `CCCCCCCN[C@@H](CC(=O)O)C(=O)Nc1ccc(C#N)cc1` [CH3 (CH2)5 CH2/1/4-CN--C6 H4], the SP in series [3] (setting [5]) is 2000.

For the compound `CCCCCCCCN[C@@H](CCC(=O)O)C(=O)Nc1ccc(C#N)cc1` [CH3 (CH2)6 CH2/2/4-CN--C6 H4], the SP in series [3] (setting [5]) is reported as 2000. Turning to `N#Cc1ccc(NC(=O)[C@H](CC(=O)O)NC=O)cc1` [compound (2), reference compound], the half-life in series [1] (setting [7]) was roughly 20 h. The sweetening potency in series [3] (setting [6]) is reported as 40 times that of sucrose. Consider `CCCC(C)CN[C@@H](CCC(=O)O)C(=O)Nc1ccc(C#N)cc1` (some centres unmarked) [CH3 (CH2)2 CH(CH3)CH2/2/4-CN--C6 H4], for which the SP in series [3] (setting [5]) was 5000.

For `CCCCCCN[C@@H](CCC(=O)O)C(=O)Nc1ccc(C#N)cc1` [CH3 (CH2)4 CH2/2/4-CN--C6 H4], in series [3] (setting [5]), the SP is 5000. In the case of `CCCC[C@H](C)C(=O)N[C@@H](CCC(=O)O)C(=O)Nc1ccc(C#N)nc1` [(5)], in series [1] (accelerated ageing), the “stability (in words)” value was “high stability”. The half-life in series [1] (setting [4]) was roughly 1440 h.

For the compound `COC(=O)[C@H](Cc1ccccc1)NC(=O)[C@@H](N)CC(=O)O` [aspartame, reference compound] (H-Asp-Phe-OMe), the “stability (in words)” value in series [1] (accelerated ageing) is recorded as “relatively low stability”. For the same compound, the half-life in series [1] (setting [4]) is 24 h. Further, the sweetening potency in series [3] (setting [6]) is listed as 180 times that of sucrose. For `CC(C)CCN[C@@H](CCC(=O)O)C(=O)Nc1ccc(C#N)cc1` [(CH3)2 CHCH2 CH2/2/4-CN--C6 H4], the SP in series [3] (setting [5]) is given as 800. Take `N#Cc1ccc(NC(=O)[C@H](CCC(=O)O)NCCc2ccccc2)cc1` [C6 H5 CH2 CH2/2/4-CN--C6 H4]: the SP in series [3] (setting [5]) is on record as 300. Regarding `CC(C)CCN[C@@H](CC(=O)O)C(=O)Nc1ccc(C#N)cc1` [(CH3)2 CHCH2 CH2/1/4-CN--C6 H4], the SP in series [3] (setting [5]) is reported as 100. With `CCCCCCN[C@@H](CC(=O)O)C(=O)Nc1ccc(C#N)cc1` [CH3 (CH2)4 CH2/1/4-CN--C6 H4], the SP in series [3] (setting [5]) is 600.

Consider `N#Cc1ccc(NC(=O)[C@H](CC(=O)O)NCCc2ccccc2)cc1` [C6 H5 CH2 CH2/1/4-CN--C6 H4], for which, in series [3] (setting [5]), the SP is 300.
